According to patent publication US11001590B2, “Pyrazolopyrimidine derivatives” (BAYER ANIMAL HEALTH GMBH, priority 2016, dated 2021):

Assay: log P by HPLC on reversed phase columns (Method L0; [a] acidic, [b] neutral range)
Details: HPLC on reversed phase columns (Method L0)
Method: Calibration was done with straight-chain alkan-2-ones (with 3 to 16 carbon atoms) with known log P values (measurement of log P values using retention times with linear interpolation between successive alkanones). Lambda-max-values were determined using UV-spectra from 200 nm to 400 nm and the peak values of the chromatographic signals.
In the case of `Cc1nn2c(C(F)(F)F)c(C(=O)N[C@H]3CCc4ccccc43)cnc2c1-c1cccc(F)c1` [Examples 387], the “log P” value is reported as 4.53. In the case of `Cc1nn2c(C(F)(F)F)c(C(=O)N[C@H]3CCc4ccccc43)cnc2c1-c1cccc(C(F)(F)F)c1` [Examples 384], the “log P” value is reported as 5.04. With `Cc1nn2c(C(C)C)c(C(=O)N[C@H]3CCOc4ccccc43)cnc2c1-c1ccc2c(c1)CCC2=O` [Example 250] the “log P” value was 3.75. For `Cc1nc2c(-c3cc(Cl)cc(Cl)c3)c(C)nn2c(C)c1C(=O)N[C@H]1CCOc2ccccc21` [Example 268], the “log P” value was 4.76. With `CC(C)c1c(C(=O)N[C@H]2CCc3ccccc32)cnc2c(-c3cc(Cl)cc(Cl)c3)c(S(=O)(=O)C(C)C)nn12` [Example 214] the “log P” value was 4.85. For `Cc1nn2c(C(F)(F)F)c(C(=O)N[C@H]3CCc4ccccc43)cnc2c1-c1cccc(N(C)C)c1` [Examples 385], the “log P” value was 4.1. With `CC(C)Sc1nn2c(C(C)C)c(C(=O)N[C@H]3CCOc4ccccc43)cnc2c1-c1cc(Cl)cc(Cl)c1` [Example 198] the “log P” value was 7. For `Cc1nn2c(C(C)C)c(C(=O)N[C@H]3CCc4ccccc43)cnc2c1-c1cn[nH]c1` [Examples 307], the “log P” value was 2.75. For `Cc1nn2c(C(C)C)c(C(=O)N[C@H]3CCc4ccccc43)cnc2c1-c1ccc(OCC(F)(F)F)cc1` [Examples 336], the “log P” value was 4.91. With `CCSc1nn2c(C(C)C)c(C(=O)N[C@H]3CCOc4ccccc43)cnc2c1-c1cc(Cl)cc(Cl)c1` [Example 200] the “log P” value was 6.71. With `CC(=O)Nc1ccc(-c2c(C)nn3c(C(C)C)c(C(=O)N[C@H]4CCc5ccccc54)cnc23)cc1` [Examples 327] the “log P” value was 3.24. For `Cc1nn2c(C(F)(F)F)c(C(=O)N[C@H]3CCc4ccccc43)cnc2c1-c1cccc(Cl)c1` [Examples 382], the “log P” value was 4.97. For `Cc1nn2c(C(C)C)c(C(=O)N[C@H]3CCc4ccccc43)cnc2c1-c1ccc(C#N)cc1` [Examples 301], the “log P” value was 4.28. In the case of `Cc1nn2c(C(F)(F)F)c(C(=O)N[C@H]3CCc4ccccc43)cnc2c1-c1cccc(OC(F)(F)F)c1` [Examples 383], the “log P” value is reported as 5.21. With `CCSc1nn2c(C(C)C)c(C(=O)N[C@H]3CCc4ccccc43)cnc2c1-c1cc(Cl)cc(Cl)c1` [Example 201] the “log P” value was 6.93. In the case of `COCc1cccc(-c2c(C)nn3c(C(F)(F)F)c(C(=O)N[C@H]4CCc5ccccc54)cnc23)c1` [Examples 371], the “log P” value is reported as 4.32. In the case of `Cc1nn2c(C(C)C)c(C(=O)N[C@H]3CCc4ccccc43)cnc2c1-c1ccc(NS(C)(=O)=O)cc1` [Examples 330], the “log P” value is reported as 3.38.

Same assay, conditions: HPLC on reversed phase columns (Method L0); last column of Table 1, column head not shown
In the case of `Cc1nn2c(C3CC3)c(C(=O)N[C@H]3CCOc4ccccc43)cnc2c1-c1ccnc(N2CCOCC2)c1` [Example 526], the “log P” value is reported as 1.53. With `CC(C)c1c(C(=O)N[C@H]2CCc3ccccc32)cnc2c(-c3cccc(OC(F)(F)F)c3)c(C3CC3)nn12` [Examples 406] the “log P” value was 6.11. With `Cc1nn2c(C(C)C)c(C(=O)N[C@H]3CCc4ccccc43)cnc2c1-c1cnn(CCN(C)C)c1` [Examples 404] the “log P” value was 1.75. For `CC(C)c1c(C(=O)N[C@H]2CCc3ccccc32)cnc2c(-c3cccc(Cl)c3)c(C3CC3)nn12` [Example 411], the “log P” value was 5.87. With `COc1c(C(=O)N[C@H]2CCOc3ccccc32)cnc2c(-c3cc(Cl)cc(Cl)c3F)c(C)nn12` [Example 515] the “log P” value was 3.17. For `Cc1nn2c(C(F)(F)F)c(C(=O)N[C@H]3CCc4ccccc43)cnc2c1-c1c(F)cccc1F` [Example 410], the “log P” value was 4.16. For `COc1c(C(=O)N[C@H]2CCc3ccccc32)cnc2c(-c3c(F)cccc3Cl)c(C)nn12` [Example 513], the “log P” value was 2.96. For `CC(C)c1c(C(=O)N[C@H]2CCc3ccccc32)cnc2c(-c3cccc(C(F)(F)F)c3)c(C3CC3)nn12` [Example 415], the “log P” value was 5.94. For `Cc1nn2c(C(C)C)c(C(=O)N[C@H]3CCc4ccccc43)cnc2c1-n1cccn1` [Example 426], the “log P” value was 3.29. In the case of `COCc1cccc(-c2c(C3CC3)nn3c(C(C)C)c(C(=O)N[C@H]4CCc5ccccc54)cnc23)c1` [Examples 409], the “log P” value is reported as 5.13. For `CC(C)c1c(C(=O)N[C@H]2CCc3ccccc32)cnc2c(-c3ccccc3Cl)c(C3CC3)nn12` [Example 414], the “log P” value was 5.87.

Same assay, conditions: HPLC on reversed phase columns, Method L0, [a] acidic range
With `Cc1ccc2c(c1)[C@@H](NC(=O)c1cnc3c(-c4cccc(Cl)c4)c(C)nn3c1C(C)C)CCC2` [Example 109] the “logP (Method L0) [a]” value was 5.9. With `CC(C)c1c(C(=O)N[C@H]2CCCc3ccccc32)cnc2c(-c3cc(Cl)cc(Cl)c3)c(Cl)nn12` [Example 64] the “logP (Method L0) [a]” value was 6.69. For `Cc1c(C(=O)N[C@H]2CCc3ccccc32)cnc2c(-c3cccc(C(F)(F)F)c3)c(C(F)(F)F)nn12` [Example 85], the “logP (Method L0) [a]” value was 4.77. For `Cc1c(C(=O)N[C@H]2CCCc3ccccc32)cnc2c(-c3cc(Cl)cc(Cl)c3)c(Cl)nn12` [Example 68], the “logP (Method L0) [a]” value was 5.78. In the case of `CC(C)c1c(C(=O)N[C@H]2CCc3ccccc32)cnc2c(-c3ccc(F)cc3)c(C(F)(F)F)nn12` [Example 162], the “logP (Method L0) [a]” value is reported as 4.95. For `Cc1c(C(=O)N[C@H]2CCc3ccccc32)cnc2c(-c3cccc(Cl)c3)c(Cl)nn12` [Example 75], the “logP (Method L0) [a]” value was 4.6. With `CC(C)c1c(C(=O)N[C@H]2CCc3ccccc32)cnc2c(-c3ccc(Cl)cc3)c(C(F)(F)F)nn12` [Example 49] the “logP (Method L0) [a]” value was 5.48. In the case of `CC(C)c1c(C(=O)N[C@H]2CCc3ccccc32)cnc2c(-c3ccc(Cl)nc3)c(C(F)(F)F)nn12` [Example 164], the “logP (Method L0) [a]” value is reported as 4.7. For `Cc1c(C(=O)N[C@H]2CCCc3ccccc32)cnc2c(-c3cccc(C(F)(F)F)c3)c(Cl)nn12` [Example 69], the “logP (Method L0) [a]” value was 5.03. In the case of `CC(C)c1c(C(=O)N[C@H]2CCc3ccccc32)cnc2c(-c3ccc(F)nc3)c(C(F)(F)F)nn12` [Example 161], the “logP (Method L0) [a]” value is reported as 4.35. In the case of `Cc1c(C(=O)N[C@H]2CCc3ccccc32)cnc2c(-c3cc(Cl)cc(Cl)c3)c(Cl)nn12` [Example 66], the “logP (Method L0) [a]” value is reported as 5.47. With `CC(C)c1c(C(=O)N[C@H]2CCc3ccccc32)cnc2c(-c3cnc(F)c(F)c3)c(C(F)(F)F)nn12` [Example 163] the “logP (Method L0) [a]” value was 4.76. For `Cc1c(C(=O)N[C@H]2CCc3ccccc32)cnc2c(-c3cccc(Cl)c3)cnn12` [Example 52], the “logP (Method L0) [a]” value was 4.04. With `Cc1ccc2c(c1)[C@@H](NC(=O)c1cnc3c(-c4ccc(Cl)cc4)c(C)nn3c1C(C)C)CCC2` [Example 113] the “logP (Method L0) [a]” value was 5.88. For `Cc1c(C(=O)N[C@H]2CCc3ccccc32)cnc2c(-c3cccc(Cl)c3)c(C(F)(F)F)nn12` [Example 55], the “logP (Method L0) [a]” value was 4.68. With `Cc1c(C(=O)N[C@H]2CCCc3ccccc32)cnc2c(-c3ccccc3Cl)c(C(F)(F)F)nn12` [Example 90] the “logP (Method L0) [a]” value was 4.5. For `Cc1c(C(=O)N[C@H]2CCCc3ccccc32)cnc2c(-c3cccc(Cl)c3)cnn12` [Example 44], the “logP (Method L0) [a]” value was 4.33. For `Cc1ccc2c(c1)[C@@H](NC(=O)c1cnc3c(-c4ccc(F)c(F)c4)c(C)nn3c1C(C)C)CCC2` [Example 112], the “logP (Method L0) [a]” value was 5.55. In the case of `O=C(N[C@H]1CCc2ccccc21)c1cnc2c(-c3cccc(Cl)c3)c(C(F)(F)F)nn2c1` [Example 50], the “logP (Method L0) [a]” value is reported as 4.57. With `Cc1c(C(=O)N[C@H]2CCc3ccccc32)cnc2c(-c3cccc(C(F)(F)F)c3)c(Cl)nn12` [Example 71] the “logP (Method L0) [a]” value was 4.73. In the case of `CC(C)c1c(C(=O)N[C@H]2CCOc3ccccc32)cnc2c(-c3cnn(CC(F)(F)F)c3)c(C(F)(F)F)nn12` [Example 129], the “logP (Method L0) [a]” value is reported as 4.21. In the case of `Cc1c(C(=O)N[C@H]2CCCc3ccccc32)cnc2c(-c3cc(Cl)cc(Cl)c3)c(C(F)(F)F)nn12` [Example 82], the “logP (Method L0) [a]” value is reported as 5.66. In the case of `O=C(N[C@H]1CCc2ccccc21)c1cnc2c(-c3ccc(Cl)cc3)c(C(F)(F)F)nn2c1` [Example 80], the “logP (Method L0) [a]” value is reported as 4.61. With `CC(C)c1c(C(=O)N[C@H]2CCCc3ccccc32)cnc2c(-c3cccc(Cl)c3)c(C(F)(F)F)nn12` [Example 51] the “logP (Method L0) [a]” value was 5.74. With `CC(C)c1c(C(=O)N[C@H]2CCCc3ccccc32)cnc2c(-c3ccc(Cl)cc3)c(Cl)nn12` [Example 76] the “logP (Method L0) [a]” value was 5.79. For `Cc1nn2c(C(C)C)c(C(=O)N[C@H]3CCc4ccccc43)cnc2c1-c1ccc(Cl)c(C(=O)NC2CC2)c1` [Example 120], the “logP (Method L0) [a]” value was 3.78. With `O=C(N[C@H]1CCc2ccccc21)c1cnc2c(-c3cc(Cl)cc(Cl)c3)cnn2c1` [Example 47] the “logP (Method L0) [a]” value was 4.74. With `Cc1c(C(=O)N[C@H]2CCCc3ccccc32)cnc2c(-c3cccc(Cl)c3)c(C(F)(F)F)nn12` [Example 86] the “logP (Method L0) [a]” value was 4.94. With `Cc1c(C(=O)N[C@H]2CCc3ccccc32)cnc2c(-c3cc(Cl)cc(Cl)c3)cnn12` [Example 65] the “logP (Method L0) [a]” value was 4.84. With `CC(C)c1c(C(=O)N[C@H]2CCCc3ccccc32)cnc2c(-c3ccc(Cl)cc3)c(C(F)(F)F)nn12` [Example 54] the “logP (Method L0) [a]” value was 5.76. In the case of `O=C(N[C@H]1CCc2ccccc21)c1cnc2c(-c3cccc(C(F)(F)F)c3)c(C(F)(F)F)nn2c1` [Example 87], the “logP (Method L0) [a]” value is reported as 4.66. For `Cc1c(C(=O)N[C@H]2CCCc3ccccc32)cnc2c(-c3cccc(C(F)(F)F)c3)c(C(F)(F)F)nn12` [Example 83], the “logP (Method L0) [a]” value was 5.03. In the case of `Cc1nn2c(C(C)C)c(C(=O)N[C@H]3CCOc4ccc(Cl)cc43)cnc2c1-c1ccc(Cl)cc1` [Example 106], the “logP (Method L0) [a]” value is reported as 5.36. For `Cc1c(C(=O)N[C@H]2CCCc3ccccc32)cnc2c(-c3ccc(Cl)cc3)c(C(F)(F)F)nn12` [Example 53], the “logP (Method L0) [a]” value was 4.97.
